Source: patent US8729082B2, “Substituted imidazoquinoxalines” (Bayer Intellectual Property GmbH, priority 2009, dated 2014)

These compounds were tested against T1, human kinase Mps-1 (Homo sapiens, UniProt P33981) (assay: Mps-1 kinase assay (HTRF)). Settings: lowATP; mean; read-out: Mps1 lowATP mean IC50.
T1 construct: N-terminally GST-tagged human full length recombinant Mps-1 kinase; purchased Invitrogen, Karslruhe, Germany PV4071
T1 sequence (P33981 1-857): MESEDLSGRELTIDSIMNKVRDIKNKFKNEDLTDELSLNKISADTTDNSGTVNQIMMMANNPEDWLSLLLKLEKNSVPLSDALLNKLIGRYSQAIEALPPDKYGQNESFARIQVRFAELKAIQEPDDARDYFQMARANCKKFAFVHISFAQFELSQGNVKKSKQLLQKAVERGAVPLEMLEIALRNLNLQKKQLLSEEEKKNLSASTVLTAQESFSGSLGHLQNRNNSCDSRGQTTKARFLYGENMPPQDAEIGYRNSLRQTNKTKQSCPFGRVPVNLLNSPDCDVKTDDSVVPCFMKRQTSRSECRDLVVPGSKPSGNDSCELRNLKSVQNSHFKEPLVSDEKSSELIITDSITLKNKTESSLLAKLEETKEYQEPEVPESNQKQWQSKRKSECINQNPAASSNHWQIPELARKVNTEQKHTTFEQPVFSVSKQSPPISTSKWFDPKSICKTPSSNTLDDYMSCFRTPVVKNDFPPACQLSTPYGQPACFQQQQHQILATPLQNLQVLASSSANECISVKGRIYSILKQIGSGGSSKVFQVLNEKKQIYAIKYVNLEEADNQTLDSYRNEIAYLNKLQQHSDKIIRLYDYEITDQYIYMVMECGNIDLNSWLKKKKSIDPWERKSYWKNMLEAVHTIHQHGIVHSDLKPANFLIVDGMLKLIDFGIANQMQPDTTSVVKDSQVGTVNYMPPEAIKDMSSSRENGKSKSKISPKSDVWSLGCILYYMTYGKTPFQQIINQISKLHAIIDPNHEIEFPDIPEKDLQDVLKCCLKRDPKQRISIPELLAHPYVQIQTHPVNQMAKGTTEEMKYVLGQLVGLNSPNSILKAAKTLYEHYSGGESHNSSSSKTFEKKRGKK
Assay type: biochemical
Procedure, shortened: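 HTRF readout: EDTA-stopped reactions incubated 1 h with europium anti-phospho(Ser/Thr) antibody and streptavidin-XLent, emission ratio 665/620 nm after 350 nm excitation. Kinase step: compound pre-bound 15 min to ~1 nM GST-Mps-1, then 60 min at 22 °C with ATP and biotin-peptide substrate; inhibition scaled between no-inhibitor (0%) and no-enzyme (100%) controls.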

Row | Compound | IC50 [µM]
1 | Cc1cc2nc(NCc3ccn(C)n3)c3ncc(-c4ccc(C(=O)NC5CC5)c(Cl)c4)n3c2cc1C [Example 2-198, 2-chloro-N-cyclopropyl-4-(7,8-dimethyl-4-{[(1-methyl-1H-pyrazol-3-yl)methyl]amino}imidazo[1,2-a]quinoxalin-1-yl)benzamide] | 0.127
2 | Cc1cc2nc(NCc3ccnn3C)c3ncc(-c4ccc(C(=O)NC5CC5)c(Cl)c4)n3c2cc1C [Example 2-199, 2-chloro-N-cyclopropyl-4-(7,8-dimethyl-4-{[(1-methyl-1H-pyrazol-5-yl)methyl]amino}imidazo[1,2-a]quinoxalin-1-yl)benzamide] | 0.0259
3 | Cc1cc2nc(NCc3cnn(C)c3)c3ncc(-c4ccc(C(=O)NC5CC5)c(Cl)c4)n3c2cc1C [Example 2-200, 2-chloro-N-cyclopropyl-4-(7,8-dimethyl-4-{[(1-methyl-1H-pyrazol-4-yl)methyl]amino}imidazo[1,2-a]quinoxalin-1-yl)benzamide] | 0.0676
4 | Cc1cc2nc(NCCS(N)(=O)=O)c3ncc(-c4ccc(C(=O)NC5CC5)c(Cl)c4)n3c2cc1C [Example 2-201, 2-chloro-N-cyclopropyl-4-{7,8-dimethyl-4-[(2-sulfamoylethyl)amino]imidazo[1,2-a]quinoxalin-1-yl}benzamide] | 0.0623
5 | Cc1cc2nc(NCC(O)CO)c3ncc(-c4ccc(C(=O)NC5CC5)c(Cl)c4)n3c2cc1C (stereo not drawn) [Example 2-202, 2-chloro-N-cyclopropyl-4-{4-[(2,3-dihydroxypropyl)amino]-7,8-dimethylimidazo[1,2-a]quinoxalin-1-yl}benzamide] | 0.335
6 | N#Cc1ccc2c(c1)nc(NCCCN1CCOCC1)c1ncc(-c3ccc(C(=O)NC4CC4)cc3)n12 [Example 2-205, 4-(7-cyano-4-{[3-(morpholin-4-yl)propyl]amino}imidazo[1,2-a]quinoxalin-1-yl)-N-cyclopropylbenzamide] | 0.413
7 | N#Cc1ccc2c(c1)nc(NCCCN1CCCC1=O)c1ncc(-c3ccc(C(=O)NC4CC4)cc3)n12 [Example 2-207, 4-(7-cyano-4-{[3-(2-oxopyrrolidin-1-yl)propyl]amino}imidazo[1,2-a]quinoxalin-1-yl)-N-cyclopropylbenzamide] | 0.195
8 | COCCCNc1nc2cc(C#N)ccc2n2c(-c3ccc(C(=O)NC4CC4)cc3)cnc12 [Example 2-218, 4-{7-cyano-4-[(3-methoxypropyl)amino]imidazo[1,2-a]quinoxalin-1-yl}-N-cyclopropylbenzamide] | 0.0507
9 | CNC(=O)Nc1ccc(-c2cnc3c(NCCO)nc4cc(C#N)ccc4n23)cc1 [Example 2-223, 1-(4-{7-cyano-4-[(2-hydroxyethyl)amino]imidazo[1,2-a]quinoxalin-1-yl}phenyl)-3-methylurea] | 4.32
10 | CNC(=O)Nc1ccc(-c2cnc3c(NCCC(C)C)nc4cc(C#N)ccc4n23)cc1 [Example 2-224, 1-(4-{7-cyano-4-[(3-methylbutyl)amino]imidazo[1,2-a]quinoxalin-1-yl}phenyl)-3-methylurea] | 3.29
11 | CNC(=O)Nc1ccc(-c2cnc3c(NCCCN4CCCC4=O)nc4cc(C#N)ccc4n23)cc1 [Example 2-225, 1-[4-(7-cyano-4-{[3-(2-oxopyrrolidin-1-yl)propyl]amino}imidazo[1,2-a]quinoxalin-1-yl)phenyl]-3-methylurea] | 8.11
12 | CNC(=O)Nc1ccc(-c2cnc3c(NCc4cccs4)nc4cc(C#N)ccc4n23)cc1 [Example 2-226, 1-(4-{7-cyano-4-[(thiophen-2-ylmethyl)amino]imidazo[1,2-a]quinoxalin-1-yl}phenyl)-3-methylurea] | 2.82
13 | CNC(=O)Nc1ccc(-c2cnc3c(NCCCO)nc4cc(C#N)ccc4n23)cc1 [Example 2-227, 1-(4-{7-cyano-4-[(3-hydroxypropyl)amino]imidazo[1,2-a]quinoxalin-1-yl}phenyl)-3-methylurea] | 3.47

Results, then the compound that gave them:

Row | IC50 [µM] | Compound
14 | 0.0111 | CCCNc1nc2cc(C#N)ccc2n2c(-c3ccc(C(=O)NC4CC4)cc3)cnc12 [Example 2-203, 4-[7-cyano-4-(propylamino)imidazo[1,2-a]quinoxalin-1-yl]-N-cyclopropylbenzamide]
15 | 0.0776 | N#Cc1ccc2c(c1)nc(NCCO)c1ncc(-c3ccc(C(=O)NC4CC4)cc3)n12 [Example 2-204, 4-{7-cyano-4-[(2-hydroxyethyl)amino]imidazo[1,2-a]quinoxalin-1-yl}-N-cyclopropylbenzamide]
16 | 0.0507 | N#Cc1ccc2c(c1)nc(NCc1cccc(F)c1)c1ncc(-c3ccc(C(=O)NC4CC4)cc3)n12 [Example 2-206, 4-{7-cyano-4-[(3-fluorobenzyl)amino]imidazo[1,2-a]quinoxalin-1-yl}-N-cyclopropylbenzamide]
17 | 0.0795 | COCCNc1nc2cc(C#N)ccc2n2c(-c3ccc(C(=O)NC4CC4)cc3)cnc12 [Example 2-208, 4-{7-cyano-4-[(2-methoxyethyl)amino]imidazo[1,2-a]quinoxalin-1-yl}-N-cyclopropylbenzamide]
18 | 0.0289 | N#Cc1ccc2c(c1)nc(NCC(F)(F)F)c1ncc(-c3ccc(C(=O)NC4CC4)cc3)n12 [Example 2-209, 4-{7-cyano-4-[(2,2,2-trifluoroethyl)amino]imidazo[1,2-a]quinoxalin-1-yl}-N-cyclopropylbenzamide]
19 | 0.0359 | CCNc1nc2cc(C#N)ccc2n2c(-c3ccc(C(=O)NC4CC4)cc3)cnc12 [Example 2-210, 4-[7-cyano-4-(ethylamino)imidazo[1,2-a]quinoxalin-1-yl]-N-cyclopropylbenzamide]
20 | 0.0329 | N#Cc1ccc2c(c1)nc(NCCCO)c1ncc(-c3ccc(C(=O)NC4CC4)cc3)n12 [Example 2-211, 4-{7-cyano-4-[(3-hydroxypropyl)amino]imidazo[1,2-a]quinoxalin-1-yl}-N-cyclopropylbenzamide]
21 | 0.01 | CCCCNc1nc2cc(C#N)ccc2n2c(-c3ccc(C(=O)NC4CC4)cc3)cnc12 [Example 2-212, 4-[4-(butylamino)-7-cyanoimidazo[1,2-a]quinoxalin-1-yl]-N-cyclopropylbenzamide]
22 | 0.106 | N#Cc1ccc2c(c1)nc(NCc1ccccn1)c1ncc(-c3ccc(C(=O)NC4CC4)cc3)n12 [Example 2-213, 4-{7-cyano-4-[(pyridin-2-ylmethyl)amino]imidazo[1,2-a]quinoxalin-1-yl}-N-cyclopropylbenzamide]
23 | 0.0288 | N#Cc1ccc2c(c1)nc(NCc1cccnc1)c1ncc(-c3ccc(C(=O)NC4CC4)cc3)n12 [Example 2-214, 4-{7-cyano-4-[(pyridin-3-ylmethyl)amino]imidazo[1,2-a]quinoxalin-1-yl}-N-cyclopropylbenzamide]
24 | 0.0248 | N#Cc1ccc2c(c1)nc(NCc1ccco1)c1ncc(-c3ccc(C(=O)NC4CC4)cc3)n12 [Example 2-215, 4-{7-cyano-4-[(furan-2-ylmethyl)amino]imidazo[1,2-a]quinoxalin-1-yl}-N-cyclopropylbenzamide]
25 | 0.00956 | CC(C)CNc1nc2cc(C#N)ccc2n2c(-c3ccc(C(=O)NC4CC4)cc3)cnc12 [Example 2-216, 4-{7-cyano-4-[(2-methylpropyl)amino]imidazo[1,2-a]quinoxalin-1-yl}-N-cyclopropylbenzamide]
26 | 0.14 | N#Cc1ccc2c(c1)nc(NCCC(N)=O)c1ncc(-c3ccc(C(=O)NC4CC4)cc3)n12 [Example 2-217, 4-{4-[(3-amino-3-oxopropyl)amino]-7-cyanoimidazo[1,2-a]quinoxalin-1-yl}-N-cyclopropylbenzamide]
27 | 0.0596 | Cn1ccc(CNc2nc3cc(C#N)ccc3n3c(-c4ccc(C(=O)NC5CC5)cc4)cnc23)n1 [Example 2-219, 4-(7-cyano-4-{[(1-methyl-1H-pyrazol-3-yl)methyl]amino}imidazo[1,2-a]quinoxalin-1-yl)-N-cyclopropylbenzamide]
28 | 0.0156 | Cn1nccc1CNc1nc2cc(C#N)ccc2n2c(-c3ccc(C(=O)NC4CC4)cc3)cnc12 [Example 2-220, 4-(7-cyano-4-{[(1-methyl-1H-pyrazol-5-yl)methyl]amino}imidazo[1,2-a]quinoxalin-1-yl)-N-cyclopropylbenzamide]
29 | 0.0671 | Cn1cc(CNc2nc3cc(C#N)ccc3n3c(-c4ccc(C(=O)NC5CC5)cc4)cnc23)cn1 [Example 2-221, 4-(7-cyano-4-{[(1-methyl-1H-pyrazol-4-yl)methyl]amino}imidazo[1,2-a]quinoxalin-1-yl)-N-cyclopropylbenzamide]
30 | 0.127 | N#Cc1ccc2c(c1)nc(NCC(O)CO)c1ncc(-c3ccc(C(=O)NC4CC4)cc3)n12 (stereo not drawn) [Example 2-222, 4-{7-cyano-4-[(2,3-dihydroxypropyl)amino]imidazo[1,2-a]quinoxalin-1-yl}-N-cyclopropylbenzamide]
